Experimental data published in paper PMC10253456, “Investigating the Contribution of Major Drug-Metabolising Enzymes to Possum-Specific Fertility Control” (International Journal of Molecular Sciences, 2023).
Where two headings read alike, the source gives them in different places.

Columns and labels:
UGT2B (heading: UGT2B4) [1] = assay: p-nitrophenol glucuronidation activity in possum liver microsomes; type: biochemical, possum (Trichosurus vulpecula); conditions: possum (Trichosurus vulpecula)
UGT2B [2] = assay: as above; type: biochemical, possum (Trichosurus vulpecula); conditions: for % of control (UGT2B4 catalytic activity at 2-fold IC50) / UGT2B4 catalytic activity at 2-fold IC50: compound at estimated 2-fold IC50
UGT2B [3] = conditions: avian; compound at estimated 2-fold IC50
UGT2B (heading: UGT2B4) [4] = assay: in vitro; conditions: avian (mallards and a swan), pH 7.4
UGT2B (heading: UGT2B4) [5] = assay: p-nitrophenol glucuronidation activity in mouse liver microsomes; conditions: BALB/c, mouse
UGT2B [6] = assay: as above
UGT2B (heading: UGT2B4) [7] = assay: p-nitrophenol glucuronidation activity in pooled human liver microsomes; conditions: human, pooled human liver microsomes (50 donors), pH 7.4, probe p-nitrophenol (0.5 mM final, from 50 µL of 5 mM in 500 µL)
UGT2B [8] = assay: as above
CYP3A [9] = assay: CYP3A catalytic activity (erythromycin N-demethylation) in mouse liver microsomes; conditions: for Percent control catalytic activity at estimated IC50 / Percent control catalytic activity at estimated 2-fold IC50: mouse liver microsomes, initial screen n=1; for Percent control catalytic activity at estimated IC50: compounds without reported IC50 at 1 µM; for Percent control catalytic activity at estimated 2-fold IC50: compounds without reported IC50 at 5 µM; for % of control (catalytic activity at 2-fold IC50) / Catalytic activity at 2-fold IC50: mouse, compound at estimated 2-fold IC50 (5 µM where none reported)
Method: (§1) Possums were collected from the Otago Peninsula (Dunedin) and the Okuti Valley, Banks Peninsula (Christchurch) in New Zealand in collaboration with the Otago Peninsula Biodiversity Group and Manaaki Whenua-Landcare Research, respectively. […] Possums were caged and humanely killed by a blow to the head, and the livers were harvested, snap-frozen in liquid nitrogen, and stored in a freezer at −80 °C until the preparation of microsomal fractions. […] Mice were euthanised by carbon dioxide inhalation and the livers were removed and microsomes prepared. […] The livers from avian species (mallards and a swan) were kindly donated by a local bird hunting group based in Dunedin, New Zealand. The livers from avian species were treated similarly to those mentioned above for the possum samples.
(§2) Microsomal preparation was carried out as previously described [76]. […] All procedures were performed at 0–4 °C. The liver samples were minced and homogenised in Buffer A (0.1 M Tris, 0.1 M potassium chloride, 1 mM EDTA, and 20 μM butylated hydroxytoluene, at pH = 7.4) using the Teflon-glass homogeniser (5–6 vertical passes). The samples were centrifuged at 10,000× g for 20 min. The supernatant was then transferred into another set of centrifuge tubes and spun at 100,000× g for 60 min. The pellet was resuspended in Buffer B (0.1 M potassium pyrophosphate, 1 mM EDTA, and 20 μM butylated hydroxytoluene, at pH = 7.4), homogenised, and recentrifuged at 100,000× g for 60 min. Finally, the pellet was homogenised in 1–2 mL of Buffer C (10 mM Tris-HCl, 1 mM EDTA, and 4% glycerol (v/v)), and stored at −80 °C until use. The protein concentration of the microsomes was determined using the bicinchoninic acid (BCA) method [77].
(§3) CYP3A catalytic activity was determined using the erythromycin N-demethylation activity assay, as described [78]. The reaction mixture (final volume of 1 mL and final protein concentration of 1 mg) contained 500 µL of microsomes in 0.1 M phosphate buffer (pH 7.4) and 400 µL of erythromycin buffer (0.45 mM), and 50 µL of the test compound was pre-warmed at 37 °C for 2 min. The reaction was initiated with 50 µL of 2.5 mM nicotinamide adenine dinucleotide phosphate (NADP^+) and incubated for 30 min at 37 °C. […] The tubes were vortexed and left for 5 min (at room temperature), and then 330 µL of saturated barium hydroxide was added. The tubes were further vortexed and left for 5 min (at room temperature). The tubes were then centrifuged at 1800× g for 10 min. To 830 µL of the supernatant, 330 µL of Nash reagent (30% (w/v) ammonium acetate, 0.4% (v/v) acetylacetone) was added and further incubated for 30 min at 60 °C. The blank tube contained 330 µL of Nash reagent and 830 µL of Milli-Q water. […] The CYP3A activities were determined in nmol/mg/min using standard curve data. Results presented are the mean ± SEM of 3 independent experiments performed in duplicate unless otherwise stated.

CYP3A [10] = assay: CYP3A catalytic activity (erythromycin N-demethylation) in possum liver microsomes; conditions: for Percent control catalytic activity at estimated IC50 / Percent control catalytic activity at estimated 2-fold IC50: possum liver microsomes, initial screen n=1; for Percent control catalytic activity at estimated IC50: compounds without reported IC50 at 1 µM; for Percent control catalytic activity at estimated 2-fold IC50: compounds without reported IC50 at 5 µM; for % of control (catalytic activity at 2-fold IC50) / Catalytic activity at 2-fold IC50: possum, compound at estimated 2-fold IC50 (5 µM where none reported)
Method: as §1, §2, §3
UGT2B (heading: UGT2B4) [11] = assay: in vitro; conditions: BALB/c, mouse, pH 7.4
UGT2B (heading: UGT2B4) [12] = assay: in vitro; conditions: human, pH 7.4
CYP3A [13] = assay: CYP3A catalytic activity (erythromycin N-demethylation) in pooled human liver microsomes; conditions: for activity at 30 min: human, pH 7.4, probe erythromycin, % of control (catalytic activity at IC50), compound at estimated IC50 (1 µM where none reported); for % of control (catalytic activity at 2-fold IC50) / Catalytic activity at 2-fold IC50: compound at estimated 2-fold IC50 (5 µM where none reported)
Method: as §3

CYP3A [14] = conditions: avian; compound at estimated 2-fold IC50 (5 µM where none reported)
Method: as §1, §2, §3

[15] = pH 7.4, compound at estimated IC50, read-out: % of control (UGT2B4 catalytic activity at IC50)
[16] = liver microsomes, pH 7.4, probe p-nitrophenol (0.5 mM final, from 50 µL of 5 mM in 500 µL)
[17] = liver microsomes, pH 7.4, probe p-nitrophenol (0.5 mM final, from 50 µL of 5 mM in 500 µL), compound at estimated IC50, read-out: % of control (UGT2B4 catalytic activity at IC50)
[18] = mouse, compound at estimated 2-fold IC50
[19] = pooled human liver microsomes, compound at estimated 2-fold IC50

SMILES	activity at 30 min (UGT2B (heading: UGT2B4) [1]; [15])	% of control (UGT2B4 catalytic activity at 2-fold IC50) (UGT2B [2])	UGT2B4 catalytic activity at 2-fold IC50 (UGT2B [2])	% of control (UGT2B4 catalytic activity at 2-fold IC50) (UGT2B [3])	UGT2B4 catalytic activity at 2-fold IC50 (UGT2B [3])	activity at 30 min (UGT2B (heading: UGT2B4) [4])	activity at 30 min (UGT2B (heading: UGT2B4) [5]; [16])	% of control (UGT2B4 catalytic activity at 2-fold IC50) (UGT2B [6])	UGT2B4 catalytic activity at 2-fold IC50 (UGT2B [6])	activity at 30 min (UGT2B (heading: UGT2B4) [7])	% of control (UGT2B4 catalytic activity at 2-fold IC50) (UGT2B [8])	UGT2B4 catalytic activity at 2-fold IC50 (UGT2B [8])	Percent control catalytic activity at estimated IC50 (CYP3A [9])	Percent control catalytic activity at estimated 2-fold IC50 (CYP3A [9])	Percent control catalytic activity at estimated IC50 (CYP3A [10])	Percent control catalytic activity at estimated 2-fold IC50 (CYP3A [10])	activity at 30 min (UGT2B (heading: UGT2B4) [1]; [17])	activity (UGT2B (heading: UGT2B4) [12])	% of control (UGT2B4 catalytic activity at 2-fold IC50) (UGT2B [6]; [18])	activity at 30 min (UGT2B (heading: UGT2B4) [5]; pH 7.4)	also measured
O=C(/C=C/C=C/c1ccc2c(c1)OCO2)N1CCCCC1 [Piperine]	103%	103 % of control	4.29 ± 0.17 µmol/mg/min	86 % of control	0.55 ± 0.06 µmol/mg/min	84%	113%	99	2.70±0.07	94%	92	3.62	126 percent control	107 percent control	127 percent control	121 percent control					
CC(C)c1nc(CN(C)C(=O)N[C@@H](CCN2CCOCC2)C(=O)N[C@H](CC[C@H](Cc2ccccc2)NC(=O)OCc2cncs2)Cc2ccccc2)cs1 [Cobicistat]						33%	104%			110%											
CC(=O)O[C@H](CC=C(C)C)C1=CC(=O)c2c(O)ccc(O)c2C1=O [Acetylshikonin]		101 % of control	3.70 ± 0.18 µmol/mg/min	84 % of control	0.53 ± 0.08 µmol/mg/min	87%							100 percent control	93 percent control	128 percent control	112 percent control	96%	98%	94 % of control		activity (UGT2B (heading: UGT2B4) [11]): 93%; UGT2B4 catalytic activity at 2-fold IC50 (UGT2B [6]; [18]): 2.92 ± 0.22 µmol/mg/min; % of control (UGT2B4 catalytic activity at 2-fold IC50) (UGT2B [8]; [19]): 100 % of control; UGT2B4 catalytic activity at 2-fold IC50 (UGT2B [8]; [19]): 3.70 µmol/mg/min
O=c1cc(-c2ccccc2)oc2cc(O)c(O)c(O)c12 [Baicalein]	105%	106 % of control	3.91 ± 0.20 µmol/mg/min	44 % of control	0.17 ± 0.06 µmol/mg/min	56%		95	3.08±0.04			3.95	114 percent control	99 percent control	102 percent control	112 percent control		97%			activity (UGT2B (heading: UGT2B4) [11]): 96%
C[C@@H]1CC[C@H]2C(C)(C)[C@H]3C[C@@]12CC[C@@]3(C)O [Cedrol]		92 % of control	3.78 ± 0.13 µmol/mg/min	91 % of control	0.56 ± 0.13 µmol/mg/min	96%				98%			90 percent control	62 percent control	107 percent control	99 percent control	93%		84 % of control	84%	UGT2B4 catalytic activity at 2-fold IC50 (UGT2B [6]; [18]): 2.57 ± 0.16 µmol/mg/min; % of control (UGT2B4 catalytic activity at 2-fold IC50) (UGT2B [8]; [19]): 98 % of control; UGT2B4 catalytic activity at 2-fold IC50 (UGT2B [8]; [19]): 3.85 µmol/mg/min
OC(Cn1cncn1)(Cn1cncn1)c1ccc(F)cc1F [Fluconazole]	93%					224%				112%			70 percent control		107 percent control					81%	p-nitrophenol glucuronidation (UGT2B) activity, % of the control (UGT2B [2]; at estimated IC50 and 2-fold IC50 values): > 65 % of the control; activity at 30 min (CYP3A [13]): 91%
Nc1ccc(S(=O)(=O)Nc2ccnn2-c2ccccc2)cc1 [Sulfaphenazole]		99 % of control	3.59 ± 0.23 µmol/mg/min	74 % of control	0.57 ± 0.14 µmol/mg/min	74%	103%		2.27 ± 0.02 µmol/mg/min		98	3.38 µmol/mg/min	96 percent control	100 percent control	93 percent control	84 percent control	105%	102%	94 % of control		% of control (catalytic activity at 2-fold IC50) (CYP3A [14]): 110 % of control; Catalytic activity at 2-fold IC50 (CYP3A [14]): 0.33 ± 0.06 nmol/mg/min; % of control (catalytic activity at 2-fold IC50) (CYP3A [9]): 109 % of control; Catalytic activity at 2-fold IC50 (CYP3A [9]): 0.68 ± 0.06 nmol/mg/min; % of control (catalytic activity at 2-fold IC50) (CYP3A [10]): 111 % of control; Catalytic activity at 2-fold IC50 (CYP3A [10]): 0.37 ± 0.04 nmol/mg/min; % of control (catalytic activity at 2-fold IC50) (CYP3A [13]): 105 % of control; Catalytic activity at 2-fold IC50 (CYP3A [13]): 0.47 nmol/mg/min
CC[C@H]1OC(=O)[C@H](C)[C@@H](O[C@H]2C[C@@](C)(OC)[C@@H](O)[C@H](C)O2)[C@H](C)[C@@H](O[C@@H]2O[C@H](C)C[C@H](N(C)C)[C@H]2O)[C@](C)(OC)C[C@@H](C)C(=O)[C@H](C)[C@@H](O)[C@]1(C)O [Clarithromycin]	108%	96 % of control	3.51 ± 0.28 µmol/mg/min	48 % of control	0.20 ± 0.08 µmol/mg/min	110%							89 percent control	81 percent control	90 percent control	117 percent control			90 % of control	120%	% of control (catalytic activity at 2-fold IC50) (CYP3A [14]): 94 % of control; Catalytic activity at 2-fold IC50 (CYP3A [14]): 0.41 ± 0.07 nmol/mg/min; UGT2B4 catalytic activity at 2-fold IC50 (UGT2B [6]; [18]): 1.77 ± 0.12 µmol/mg/min; % of control (catalytic activity at 2-fold IC50) (CYP3A [9]): 95 % of control; Catalytic activity at 2-fold IC50 (CYP3A [9]): 0.60 ± 0.09 nmol/mg/min; % of control (catalytic activity at 2-fold IC50) (CYP3A [10]): 103 % of control; Catalytic activity at 2-fold IC50 (CYP3A [10]): 0.43 ± 0.01 nmol/mg/min; % of control (catalytic activity at 2-fold IC50) (CYP3A [13]): 91 % of control; Catalytic activity at 2-fold IC50 (CYP3A [13]): 0.59 nmol/mg/min; activity at 30 min (CYP3A [13]): 95%
CCC(C)n1ncn(-c2ccc(N3CCN(c4ccc(OCC5COC(Cn6cncn6)(c6ccc(Cl)cc6Cl)O5)cc4)CC3)cc2)c1=O (stereo not shown) [Itraconazole]		102 % of control	3.06 ± 0.25 µmol/mg/min	94 % of control	0.35 ± 0.05 µmol/mg/min	118%		106	1.99 ± 0.24 µmol/mg/min	95%	88	2.80 µmol/mg/min	91 percent control	91 percent control	141 percent control	120 percent control	102%			125%	
